# Experiments:
# [1] = tested on: enzymes involved in lipid metabolism; test: Tissue expression of lipid metabolism enzymes (real-time RT-PCR) after i.c.v. OT infusion; format: in vivo, rat
# Method: To delineate the mechanisms responsible for the effect on peripheral metabolism, the expression of enzymes involved in lipid metabolism was analyzed in adipose tissues (epididymal white and interscapular brown adipose tissues). Total RNAs were extracted from frozen tissue using a single-step extraction with Trizol reagent (Sigma-Aldrich, Buchs, Switzerland). RNA integrity was assessed by electrophoresis on a 1% agarose gel and concentration was determined by spectrophotometry. An amount of 2.5 μg of total RNAs was used for RT using random hexamers (Microsynth, Geneva, Switzerland), dNTPs (Promega Corporation, Madison, Wis., USA), RNasin as an RNase inhibitor (Promega Corporation) and the Moloney Murine Leukemia Virus Reverse Transcriptase (M-MLV-RT) enzyme kit (Invitrogen, Basel, Switzerland). For quantitative PCR (qPCR), amplification of genes was performed from 6.25 or 12.5 ng cDNA, using the SYBR® green PCR Master Mix (Applied Biosystems, Warrington, UK) and an ABI7500 machine (Applied Biosystems, Foster City, Calif.). All the primers were designed (FIG. 9, Table 1) with the PrimerExpress software (http://phym.unige.ch/) and used at a concentration of 200 to 300 nM for qPCR. Results were normalized to the expression levels of the housekeeping gene, ribosomal protein S29 (RPS29).
# [2] = tested on: epididymal white adipose tissue (eWAT); test: eWAT endocannabinoid content after i.c.v. OT infusion; format: in vivo, rat
# HFD-induced obese rats [3] = test: Glucose tolerance tests after i.c.v. OT infusion; format: in vivo, rat; conditions: after 7 weeks of HFD, i.c.v. 1.6 nmol/d
# Method: The impact of OT-induced changes in peripheral lipid metabolism on glucose tolerance and insulin sensitivity was determined by glucose tolerance tests (GTT). Glucose (75 mg/kg body weight) was intraperitoneally administered 4 h after food removal. Blood glucose levels were measured using a glucose meter (One Touch II; LifeScan) from tail blood samples at 0, 15, 30, 60, 90, and 120 min after glucose injection.
# Two glucose tolerance tests (GTT) were performed, a first one after […] of HFD (i.e. before the respective saline and OT treatments) and a second one at the end of the 2 week saline or OT infusion (i.e. after 7 weeks of HFD).
# HFD-induced obese rats [4] = test: Euglycemic-hyperinsulinemic clamps after i.c.v. OT infusion; format: in vivo, rat; conditions: 14-day i.c.v. 1.6 nmol/d
# Method: (§1) Global and tissue-specific glucose utilization rates were measured by performing euglycemic-hyperinsulinemic clamps associated with the labeled 2-deoxyglucose technique as previously described (Vettor et al., 1994, Diabetologia, 37, 1202-1208). HFD-induced obese rats were overnight fasted and intraperitoneally anesthetized with Nembutal (75 mg/kg sodium pentobarbital; Abbott Laboratories, Chicago, Ill.). Total glucose utilization was measured during euglycemic-hyperinsulinemic clamps, as previously described (Vettor et al., 1994, above). At the end of the clamp, the in vivo insulin-stimulated glucose utilization index of individual tissues was determined by injecting a single bolus of labeled 2-deoxy-D-[1-3H]glucose (30 μCi; Amersham Biosciences UK, Little Chalfont, UK), as previously described (Vettor et al., 1994, above). Rats were killed by rapid decapitation, and tissues were rapidly removed, freeze-clamped, and stored at −80° C. Measurement of tissue concentration of 2-deoxy-d-[1-^3H]glucose-6-phosphate allowed calculation (Vettor et al., 1994, above) of the in vivo glucose utilization index of individual tissues and was expressed in ng/mg·min.
# [5] = tested on: differentiated 3T3-L1 adipocytes; test: Lipid metabolism in differentiated 3T3-L1 adipocytes in vitro; format: cell-based, Murine; conditions: 24 h incubation, 5 μM OT
# Method: The in vitro effect of OT on lipid metabolism in differentiated 3T3-L1 adipocytes was assayed as follows. Murine 3T3-L1 fibroblasts were differentiated towards a […] phenotype as previously described (Olson et al., 1997, Mol. Cell. Biol., 2425-2435). In brief, cells were cultured in Dulbecco's modified eagle medium (DMEM) with 4.5 g/l glucose supplemented with 10% heat-inactivated depleted calf serum (DCS) at 37° C./8% CO2. Cells were induced to differentiate, two days post confluence, by sequential incubations with: DMEM 4.5 g/l glucose, 10% fetal bovine serum (FCS) containing 1 μg/ml insulin, 0.25 μM dexamethasone and 0.5 mM isobutylmethylxanthane (IBMX) for 4 days; DMEM 4.5 g/l glucose, 10% FCS containing insulin alone for an additional 4 days; DMEM 4.5 g/l glucose, 10% FCS for 3-4 days. Differentiation was considered achieved when more than 90% of cells display an accumulation of large lipid droplets in their cytoplasm.
# HFD-induced obese rats [6] = test: HOMA-IR and euglycemic-hyperinsulinemic clamps after subcutaneous OT infusion; format: in vivo, rat; conditions: s.c. 50 nmol/day, 14 days
# Method: as §1, with “Rats were killed by rapid decapitation, and tissues were rapidly removed, freeze-clamped, and stored at −80° C. Measurement of tissue concentration of 2-deoxy-d-[1-^3H]glucose-6-phosphate allowed calculation (Vettor et al., 1994, above) of the in vivo glucose utilization index of individual tissues and was expressed in ng/mg·min.” left out
# The beneficial effects of OT administration were assessed in the same rat model of high-fat diet induced obesity as in Example 1. […]
# Insulinemia and glycemia were measured after an overnight fast before the euglycemic hyperinsulinemic clamps) and were used to calculate the “homeostasis model assessment of insulin resistance” (HOMA-IR). HOMA-IR was calculated as follows: (fasting serum insulin in mU/l)×(fasting blood glucose in mM)/22.5.
# The effect of peripheral OT administration on high fat diet-induced insulin resistance was determined as described in Example 1.
# [7] = interscapular brown adipose tissue (BAT), i.c.v. OT
compound,measurement,setting,value
"CC[C@H](C)[C@@H]1NC(=O)[C@H](Cc2ccc(O)cc2)NC(=O)[C@@H](N)CSSC[C@@H](C(=O)N2CCC[C@H]2C(=O)N[C@@H](CC(C)C)C(=O)NCC(N)=O)NC(=O)[C@H](CC(N)=O)NC(=O)[C@H](CCC(N)=O)NC1=O [OT, Cys-Tyr-Ile-Gln-Asn-Cys-Pro-Leu-Gly (SEQ ID NO: 1)]",mRNA expression of PPAR-alpha and its target genes,"[1]; BAT, OT infusion (16 nmol/d experiment)",significantly increased
same,Acaca mRNA expression,"[1]; eWAT, i.c.v. 1.6 nmol/d",did not modify
same,Acadm mRNA expression,"[1]; eWAT, i.c.v. 1.6 nmol/d",increased
same,Acox1 mRNA expression,"[1]; eWAT, i.c.v. 1.6 nmol/d",increased
same,Dgat1 mRNA expression,"[1]; eWAT, i.c.v. 1.6 nmol/d",did not modify
same,Ehhadh mRNA expression,"[1]; eWAT, i.c.v. 1.6 nmol/d",increased
same,Fasn mRNA expression,"[1]; eWAT, i.c.v. 1.6 nmol/d",did not modify
same,HSL mRNA expression,"[1]; eWAT, i.c.v. 1.6 nmol/d",increased
same,Lpl mRNA expression,"[1]; eWAT, i.c.v. 1.6 nmol/d",increase
same,Pnpla2 mRNA expression,"[1]; eWAT, i.c.v. 1.6 nmol/d",increased
same,Scd1 mRNA expression,"[1]; eWAT, i.c.v. 1.6 nmol/d",marked increase
same,Ucp3 mRNA expression,"[1]; eWAT, i.c.v. 1.6 nmol/d",enhanced
same,PPAR-alpha mRNA,"[1]; eWAT, i.c.v. 16 nmol/d",did not modify
same,"expression of PPAR-alpha target genes (Acadm, Acox1, Ehhadh, Ucp3)","[1]; eWAT, i.c.v. 16 nmol/d, food intake-independent",increases
same,stimulatory effect on Scd1 mRNA expression,[1]; i.c.v. 1.6 nmol/d (lower dose),4.2 folds
same,stimulatory effect on Scd1 mRNA expression,[1]; i.c.v. 16 nmol/d,5.6 folds
same,PPAR-alpha expression,[1]; [7],significantly increased
same,expression of the main enzymes involved in fatty acid β-oxidation,[1]; [7],significantly increased
same,expression of genes involved in fatty acid β-oxidation,"[1]; skeletal muscle, central OT infusion",did not modify
same,eWAT OEA content,"[2]; chronic i.c.v. OT 1.6 nmol/d, compared with saline",increased
same,"eWAT content of other endocannabinoids (PEA, AEA, 2-AG)",[2]; chronic i.c.v. OT infusion,not modifying
same,stimulatory effect on OEA content,[2]; i.c.v. 1.6 nmol/d (lower dose),1.3 folds
same,stimulatory effect on OEA content,[2]; i.c.v. 16 nmol/d,2 folds
same,insulin oversecretion during GTT,HFD-induced obese rats [3],not observed
same,glucose tolerance (GTT),HFD-induced obese rats [3]; compared to GTT after 3 weeks of HFD,impairment
same,glucose uptake in epididymal WAT,HFD-induced obese rats [4],significant increase
same,glucose uptake in inguinal WAT,HFD-induced obese rats [4],significant increase
same,glucose infusion rate (GIR),HFD-induced obese rats [4]; compared to saline,significant increases
same,"glucose utilization index, red gastrocnemius",HFD-induced obese rats [4]; compared to saline,significant increases
same,"glucose utilization index, red quadriceps",HFD-induced obese rats [4]; compared to saline,significant increases
same,"glucose utilization index, soleus",HFD-induced obese rats [4]; compared to saline,significant increases
same,OEA content,[5],increased
same,PPAR-alpha mRNA expression,[5],stimulatory effect
same,mRNA expression of all the lipid metabolism-related genes affected by central OT infusion,[5],increased
same,Scd1 mRNA expression,[5]; relative to effect in centrally infused rats,less marked
same,glucose infusion rate (GIR),HFD-induced obese rats [6],significantly increased
same,HOMA-IR,"HFD-induced obese rats [6]; compared to saline, not observed in pair-fed group",lower

# Source: patent US9101569B2, “Methods for the treatment of insulin resistance” (UNIVERSITE DE GENEVE, priority 2010, dated 2015)
